The compound `Br.Cn1c(C(=O)N2CCN(Cc3ccc(OC(CF)CF)cc3)CC2)cc2ccc(Oc3ccc(NC(=O)c4ccc(Cl)c(Cl)c4)cn3)cc21` [Example 470, 3,4-Dichloro-N-[6-(2-{4-[4-(2-fluoro-1-fluoromethylethoxy)-benzyl]piperazine-1-carbonyl}-1-methyl-1H-indol-6-yloxy)pyridin-3-yl]benzamide hydrobromide] came in with a melting point of 242.8 to 243.9 °C. Consider `Br.CCCOc1ccc(CN2CCN(C(=O)c3cc4ccc(Oc5ccc(N(C)C(=O)c6ccc(OC(F)(F)F)cc6)cn5)cc4n3C)CC2)cc1` [Example 471, N-Methyl-N-(6-{1-methyl-2-[4-(4-propoxybenzyl)piperazine-1-carbonyl]-1H-indol-6-yloxy}pyridin-3-yl)-4-trifluoromethoxy-benzamide hydrobromide], for which the melting point was 240 to 242 °C.

As for `Br.CC(C)Oc1ccc(CN2CCN(C(=O)c3cc4ccc(Oc5ccc(N(C)C(=O)c6ccc(OC(F)(F)F)cc6)cn5)cc4n3C)CC2)cc1` [Example 472, N-(6-{2-[4-(4-Isopropoxybenzyl)piperazine-1-carbonyl]-1-methyl-1H-indol-6-yloxy}pyridin-3-yl)-N-methyl-4-trifluoromethoxy-benzamide hydrobromide], the melting point lay within 237.2 to 238.5 °C.

With `Br.Cn1c(C(=O)N2CCN(Cc3ccc(OCC(F)(F)F)cc3)CC2)cc2ccc(Oc3ccc(NC(=O)c4ccc(C(F)(F)F)cc4)cn3)cc21` [Example 474, N-[6-(1-Methyl-2-{4-[4-(2,2,2-trifluoroethoxy)benzyl]piperazine-1-carbonyl}-1H-indol-6-yloxy)pyridin-3-yl]-4-trifluoromethyl-benzamide hydrobromide], the melting point was 269 to 270.3 °C. Under `Br.CCCOc1ccc(CN2CCN(C(=O)c3cc4ccc(Oc5ccc(NC(=O)c6ccc(C(F)(F)F)cc6)cn5)cc4n3C)CC2)cc1` [Example 475, N-(6-{1-Methyl-2-[4-(4-propoxybenzyl)piperazine-1-carbonyl]-1H-indol-6-yloxy}pyridin-3-yl)-4-trifluoromethylbenzamide hydrobromide] stands 254 to 255.7 °C; under `Br.CC(C)Oc1ccc(CN2CCN(C(=O)c3cc4ccc(Oc5ccc(NC(=O)c6ccc(C(F)(F)F)cc6)cn5)cc4n3C)CC2)cc1` [Example 476, N-(6-{2-[4-(4-Isopropoxybenzyl)piperazine-1-carbonyl]-1-methyl-1H-indol-6-yloxy}pyridin-3-yl)-4-trifluoromethylbenzamide hydrobromide], 258.7 to 259.6 °C. Under `Br.Cn1c(C(=O)N2CCN(Cc3ccc(OC(F)F)cc3)CC2)cc2ccc(Oc3ccc(NC(=O)c4ccc(C(F)(F)F)cc4)cn3)cc21` [Example 477, N-(6-{2-[4-(4-Difluoromethoxybenzyl)piperazine-1-carbonyl]-1-methyl-1H-indol-6-yloxy}pyridin-3-yl)-4-trifluoromethylbenzamide hydrobromide] stands 265.6 to 268.3 °C; under `Br.CCCc1ccc(CN2CCN(C(=O)c3cc4ccc(Oc5ccc(NC(=O)c6ccc(C(F)(F)F)cc6)cn5)cc4n3C)CC2)cc1` [Example 478, N-(6-{1-Methyl-2-[4-(4-propylbenzyl)piperazine-1-carbonyl]-1H-indol-6-yloxy}pyridin-3-yl)-4-trifluoromethylbenzamide hydrobromide], 267 to 268.2 °C; under `Br.Cn1c(C(=O)N2CCN(Cc3ccc(OCC(F)F)cc3)CC2)cc2ccc(Oc3ccc(NC(=O)c4ccc(C(F)(F)F)cc4)cn3)cc21` [Example 479, N-[6-(2-{4-[4-(2,2-Difluoroethoxy)benzyl]piperazine-1-carbonyl}-1-methyl-1H-indol-6-yloxy)pyridin-3-yl]-4-trifluoromethyl-benzamide hydrobromide], 260.7 to 261.2 °C. Next, `Br.CCCOc1ccc(CN2CCN(C(=O)c3cc4cc(Oc5ccc(NC(=O)c6ccc(C(F)(F)F)cc6)cn5)ccc4n3C)CC2)cc1` [Example 481, N-(6-{1-Methyl-2-[4-(4-propoxybenzyl)piperazine-1-carbonyl]-1H-indol-5-yloxy}pyridin-3-yl)-4-trifluoromethylbenzamide hydrobromide]: 234.7 to 235.1 °C. Regarding `Br.CN(C(=O)c1ccc(Cl)c(Cl)c1)c1ccc(Oc2ccc3cc(C(=O)N4CCN(Cc5ccc(OCCF)cc5)CC4)n(C)c3c2)nc1` [Example 482, 3,4-Dichloro-N-[6-(2-{4-[4-(2-fluoroethoxy)benzyl]piperazine-1-carbonyl}-1-methyl-1H-indol-6-yloxy)pyridin-3-yl]-N-methyl-benzamide hydrobromide], the melting point lay within 186.9 to 188.8 °C. Next, `Br.CN(C(=O)c1ccc(Cl)c(Cl)c1)c1ccc(Oc2ccc3cc(C(=O)N4CCN(Cc5ccc(OCC(F)F)cc5)CC4)n(C)c3c2)nc1` [Example 483, 3,4-Dichloro-N-[6-(2-{4-[4-(2,2-difluoroethoxy)benzyl]piperazine-1-carbonyl}-1-methyl-1H-indol-6-yloxy)pyridin-3-yl]-N-methyl-benzamide hydrobromide]: 182.4 to 184.6 °C; `Br.CN(C(=O)c1ccc(Cl)c(Cl)c1)c1ccc(Oc2ccc3cc(C(=O)N4CCN(Cc5ccc(OCC(F)(F)F)cc5)CC4)n(C)c3c2)nc1` [Example 484, 3,4-Dichloro-N-methyl-N-[6-(1-methyl-2-{4-[4-(2,2,2-trifluoro-ethoxy)benzyl]piperazine-1-carbonyl}-1H-indol-6-yloxy)pyridin-3-yl]benzamide hydrobromide]: 197.1 to 201.5 °C; `Br.CN(C(=O)c1ccc(Cl)c(Cl)c1)c1ccc(Oc2ccc3cc(C(=O)N4CCN(Cc5ccc(OC(CF)CF)cc5)CC4)n(C)c3c2)nc1` [Example 485, 3,4-Dichloro-N-[6-(2-{4-[4-(2-fluoro-1-fluoromethylethoxy)-benzyl]piperazine-1-carbonyl}-1-methyl-1H-indol-6-yloxy)pyridin-3-yl]-N-methylbenzamide hydrobromide]: 188.2 to 191.8 °C. Next, `Br.CC(C)Oc1ccc(CN2CCN(C(=O)c3cc4ccc(Oc5ccc(N(C)C(=O)c6ccc(Cl)c(Cl)c6)cn5)cc4n3C)CC2)cc1` [Example 486, 3,4-Dichloro-N-(6-{2-[4-(4-isopropoxybenzyl)piperazine-1-carbonyl]-1-methyl-1H-indol-6-yloxy}pyridin-3-yl)-N-methyl-benzamide hydrobromide]: 220.2 to 223.5 °C. Compound `Br.CCCOc1ccc(CN2CCN(C(=O)c3cc4ccc(Oc5ccc(N(C)C(=O)c6ccc(Cl)c(Cl)c6)cn5)cc4n3C)CC2)cc1` [Example 487, 3,4-Dichloro-N-methyl-N-(6-{1-methyl-2-[4-(4-propoxybenzyl)-piperazine-1-carbonyl]-1H-indol-6-yloxy}pyridin-3-yl)benzamide hydrobromide] returned a melting point of 204.9 to 208.5 °C. Under `Br.CN(C(=O)c1ccc(Cl)c(Cl)c1)c1ccc(Oc2ccc3cc(C(=O)N4CCN(Cc5ccc(OC(F)F)cc5)CC4)n(C)c3c2)nc1` [Example 488, 3,4-Dichloro-N-(6-{2-[4-(4-difluoromethoxybenzyl)piperazine-1-carbonyl]-1-methyl-1H-indol-6-yloxy}pyridin-3-yl)-N-methyl-benzamide hydrobromide] stands 185.6 to 189.3 °C.

With `Br.CN(C(=O)c1ccc(Cl)c(Cl)c1)c1ccc(Oc2ccc3cc(C(=O)N4CCN(Cc5ccc6c(c5)OC(F)(F)O6)CC4)n(C)c3c2)nc1` [Example 489, 3,4-Dichloro-N-(6-{2-[4-(2,2-difluorobenzo[1,3]dioxol-5-yl-methyl)piperazine-1-carbonyl]-1-methyl-1H-indol-6-yloxy}pyridin-3-yl)-N-methylbenzamide hydrobromide], the melting point is 225.4 to 227.1 °C. Under `Cn1c(C(=O)N2CCN(Cc3ccc(OC(CF)CF)cc3)CC2)cc2ccc(Oc3ccc(NS(=O)(=O)C4=CC=C(Cl)C(C)(Cl)C4)cn3)cc21` (stereo not drawn) [Example 506, 3,4-Dichloro-N-[6-(2-{4-[4-(2-fluoro-1-fluoromethylethoxy)-benzyl]piperazine-1-carbonyl}-1-methyl-1H-indol-6-yloxy)pyridin-3-yl]-M-methylbenzenesulfonamide] stands 157.7 to 160.2 °C; under `CN(c1ccc(Oc2ccc3cc(C(=O)N4CCN(Cc5ccc6c(c5)OC(F)(F)O6)CC4)n(C)c3c2)nc1)S(=O)(=O)c1ccc(Cl)c(Cl)c1` [Example 508, 3,4-Dichloro-N-(6-{2-[4-(2,2-difluorobenzo[1,3]dioxol-5-yl-methyl)piperazine-1-carbonyl]-1-methyl-1H-indol-6-yloxy}pyridin-3-yl)-N-methylbenzenesulfonamide], 149.9 to 151.3 °C. Under `Br.CCCOc1ccc(CN2CCN(C(=O)c3cc4ccc(Oc5ccc(NS(=O)(=O)c6ccc(C(F)(F)F)cc6)cn5)cc4n3C)CC2)cc1` [Example 511, N-(6-{1-Methyl-2-[4-(4-propoxybenzyl)piperazine-1-carbonyl]-1H-indol-6-yloxy}pyridin-3-yl)-4-trifluoromethylbenzenesulfonamide hydrobromide] stands 223.7 to 224.8 °C. Next, `CN(c1ccc(Oc2ccc3cc(C(=O)N4CCN(Cc5ccc(OCC(F)F)cc5)CC4)n(C)c3c2)nc1)S(=O)(=O)c1ccc(Cl)c(Cl)c1` [Example 512, 3,4-Dichloro-N-[6-(2-{4-[4-(2,2-difluoroethoxy)benzyl]piperazine-1-carbonyl}-1-methyl-1H-indol-6-yloxy)pyridin-3-yl]-N-methyl-benzenesulfonamide]: 168.4 to 168.6 °C; `CN(c1ccc(Oc2ccc3cc(C(=O)N4CCN(Cc5ccc(OCCF)cc5)CC4)n(C)c3c2)nc1)S(=O)(=O)c1ccc(Cl)c(Cl)c1` [Example 513, 3,4-Dichloro-N-[6-(2-{4-[4-(2-fluoroethoxy)benzyl]piperazine-1-carbonyl}-1-methyl-1H-indol-6-yloxy)pyridin-3-yl]-N-methyl-benzenesulfonamide]: 195.2 to 196.8 °C. As to `CN(c1ccc(Oc2ccc3cc(C(=O)N4CCN(Cc5ccc(OCC6CC6)cc5)CC4)n(C)c3c2)nc1)S(=O)(=O)c1ccc(Cl)c(Cl)c1` [Example 514, 3,4-Dichloro-N-(6-{2-[4-(4-cyclopropylmethoxybenzyl)piperazine-1-carbonyl]-1-methyl-1H-indol-6-yloxy}pyridin-3-yl)-N-methyl-benzenesulfonamide], the melting point fell in the range of 194.1 to 195.8 °C.
